Columns and labels:
[1] = target: T1, ALDHTt515 (Thermus thermophilus, UniProt Q72KD3); assay: X-ray crystal structure; conditions: co-crystallised with 1 mM NADP+; cofactor binding cleft
T1 construct: gene TT_C0513; C-terminal truncation lacking the last 15 of 530 residues; tetramer; not the natural 515-residue HB8 enzyme

[2] = target: T2, ALDHTt508 (Thermus thermophilus, UniProt Q72KD3); assay: fluorescence of NADH formation; format: biochemical; conditions: 0.4 mM NAD+, 1 mM hexanal, pH 8.0, 50 °C; turnover only
T2 construct: gene TT_C0513; C-terminal truncation after residue 508 of 530; tetramer

[3] = target: T1, ALDHTt515; assay: fluorescence of NADH formation; format: biochemical; conditions: 0.4 mM NAD+, 1 mM hexanal, pH 8.0, 50 °C; turnover only
[4] = target: T3, ALDHTt530 (recombinant wild type ALDHTt) (Thermus thermophilus, UniProt Q72KD3); assay: X-ray crystal structure; format: binding; conditions: crystals with 50 mM propanal; substrate entry channel, anchor loop
T3 construct: gene TT_C0513; full length, 530 residues; homotetramer; 6FJX is the native protein
T3 sequence (Q72KD3 1-530): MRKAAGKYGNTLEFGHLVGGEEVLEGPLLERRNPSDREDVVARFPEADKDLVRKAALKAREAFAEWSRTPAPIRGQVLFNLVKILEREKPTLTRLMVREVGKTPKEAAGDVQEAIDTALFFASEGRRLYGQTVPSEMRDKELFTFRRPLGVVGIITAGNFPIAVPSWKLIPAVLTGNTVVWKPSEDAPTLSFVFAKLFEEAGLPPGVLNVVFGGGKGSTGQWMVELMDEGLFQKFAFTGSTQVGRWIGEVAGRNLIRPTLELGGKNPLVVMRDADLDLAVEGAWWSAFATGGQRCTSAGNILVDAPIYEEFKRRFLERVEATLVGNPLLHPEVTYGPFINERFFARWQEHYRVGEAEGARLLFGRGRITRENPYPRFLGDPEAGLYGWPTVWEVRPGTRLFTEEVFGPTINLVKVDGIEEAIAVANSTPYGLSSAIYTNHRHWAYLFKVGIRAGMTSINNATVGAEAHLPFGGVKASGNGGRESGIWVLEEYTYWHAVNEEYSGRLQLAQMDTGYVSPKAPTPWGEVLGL

[5] = target: native aldehyde dehydrogenase from Thermus thermophilus (ALDHTt native) (Thermus thermophilus); assay: crystal structure; sitting-drop vapor diffusion at 20 °C against 50 mM MOPS pH 7.5 and 1.2 M ammonium sulfate; space group P4(1)2(1)2, two copies in the asymmetric unit, tetramer by NCS and crystallographic symmetry; recombinant proteins in the same conditions (ALDHTt515 with 1 mM NADP+, ALDHTt530 with 50 mM propanal)
[6] = substrate: CCC=O; assay: fluorescence of NADH formation; format: biochemical, Thermus thermophilus; conditions: 25 °C, NAD+ as cofactor, pH 8.0 (standard assay)

For `NC(=O)c1ccc[n+]([C@@H]2O[C@H](COP(=O)(O)OP(=O)(O)OC[C@H]3O[C@@H](n4cnc5c(N)ncnc54)[C@H](OP(=O)(O)O)[C@@H]3O)[C@@H](O)[C@H]2O)c1` [NADP^+], the X-ray crystal structure [1] was “The co-crystal structure of ALDHTt515 was solved with NADP^+ bound”.

For `NC(=O)c1ccc[n+]([C@@H]2O[C@H](COP(=O)(O)OP(=O)(O)OC[C@H]3O[C@@H](n4cnc5c(N)ncnc54)[C@H](O)[C@@H]3O)[C@@H](O)[C@H]2O)c1` [NAD^+], the “fluorescence of NADH formation” value [2] was “both truncated mutants ALDHTt508 and ALDHTt515 were slightly more active” and the “fluorescence of NADH formation” value [3] was “both truncated mutants ALDHTt508 and ALDHTt515 were slightly more active”.

`CCC(=O)O` [propanoic acid] was tested, and the X-ray crystal structure [4] was “yielded a structure with a product molecule, propanoic acid, in monomer A and B”.

In the case of “native aldehyde dehydrogenase from Thermus thermophilus (ALDHTt native) (enzyme)”, the stoichiometry N [5] is reported as 4.

B1: ALDHTt530 (recombinant wild type ALDHTt) (Thermus thermophilus HB27) (protein)
chain: MRKAAGKYGNTLEFGHLVGGEEVLEGPLLERRNPSDREDVVARFPEADKDLVRKAALKAREAFAEWSRTPAPIRGQVLFNLVKILEREKPTLTRLMVREVGKTPKEAAGDVQEAIDTALFFASEGRRLYGQTVPSEMRDKELFTFRRPLGVVGIITAGNFPIAVPSWKLIPAVLTGNTVVWKPSEDAPTLSFVFAKLFEEAGLPPGVLNVVFGGGKGSTGQWMVELMDEGLFQKFAFTGSTQVGRWIGEVAGRNLIRPTLELGGKNPLVVMRDADLDLAVEGAWWSAFATGGQRCTSAGNILVDAPIYEEFKRRFLERVEATLVGNPLLHPEVTYGPFINERFFARWQEHYRVGEAEGARLLFGRGRITRENPYPRFLGDPEAGLYGWPTVWEVRPGTRLFTEEVFGPTINLVKVDGIEEAIAVANSTPYGLSSAIYTNHRHWAYLFKVGIRAGMTSINNATVGAEAHLPFGGVKASGNGGRESGIWVLEEYTYWHAVNEEYSGRLQLAQMDTGYVSPKAPTPWGEVLGL
notes: full length, 530 residues; homotetramer; 6FJX is the native protein
In the case of B1, the Km [6] is reported as 2760 µM.
